{
  "source": "paper PMC3429785",
  "about": "(Bioconjugate chemistry, 2012)",
  "key": {"[1]": {"system": "JRFL luciferase reporter pseudovirions (HOS-CD4-CCR5 target cells)", "assay": "Pseudovirion infectivity assay, JRFL", "format": "cell-based, HIV-1", "details": "JRFL strain"}, "[2]": {"system": "HXB2 luciferase reporter pseudovirions (HOS-CD4-CXCR4 target cells)", "assay": "Pseudovirion infectivity assay, HXB2", "format": "cell-based, HIV-1", "details": "HXB2 strain"}},
  "data": [
    {"substance": "C34-PEG80-Chol: C-peptide (C34) cholesterol conjugate with PEG80 linker", "values": [
      {"measurement": "fold worse than the optimal PEG length", "setting": "[1]", "result": 4, "unit": "fold"}
    ]},
    {"substance": "C34-PEG11-Chol: C-peptide (C34) cholesterol conjugate with PEG11 linker", "values": [
      {"measurement": "additional fold improvement in potency over short PEG2 linker", "setting": "[2]", "result": 2, "unit": "fold"}
    ]},
    {"substance": "C34-PEG2-Chol: C-peptide (C34) cholesterol conjugate with short PEG2 linker [reference compound]", "values": [
      {"measurement": "fold improved potency of cholesterol conjugate compared to C34", "setting": "[2]", "result": "~ 40 fold"}
    ]}
  ]
}
